Assay results reported in patent US20200093864A1, “NOVEL THERAPEUTIC STEM CELL COMPOSITIONS WITH AN ACTIVE OXIDATIVE PHOSPHORYLATION SITE AND THEIR PREPARATION” (priority 2018, published 2020).

Experiments:
[1] = test system: human adenocarcinoma cells; assay: Growth of cultured human adenocarcinoma cells (Example 7); assay type: cell-based; details: for growth of cultured human adenocarcinoma cells (in words): Table 2 summary; for cell growth (10^5): cell numbers on day 4, 10^5 cells passaged day 0; for cell growth (10^5) / cell growth (% of control): TR2Co and TR 30 mg/dL, hMSC 10^5 added; for cell growth (% of control): day 4
Experimental: Human adenocarcinoma cells were cultured in RPMI medium with added fetal bovine serum and antibiotics, as reported by McCully K S et al in Research Communications in Chemical Pathology and Pharmacology, 1992; 77: 125-128. Equal numbers (10^5) of adenocarcinoma cells were trypsinized and passaged on day 0, and the cells were refed with media containing test compounds on days 1 and 3. Cell numbers were determined by trypsinization on day 4. Thioretinaco (TR2Co) and thioretinamide (TR) were synthesized, as previously described (McCully U.S. Pat. No. 4,618,685; McCully U.S. Pat. No. 4,925,931) and dissolved in absolute ethanol. Propylene glycol (PG) was added to the ethanol solutions of the test compounds, the ethanol was evaporated under reduced pressure at 37° C., and the resulting solutions in propylene glycol were added to the culture media. Human mesenchymal stem cells (hMSC) were incubated with cell culture medium containing TR2Co, NAD^+ and H2PO4^− in an atmosphere containing 5% ozone (O3), to produce activated stem cells and 10^5 hMSC were added to the culture medium containing adenocarcinoma cells. Equal numbers (10^5) of hMSC without exposure to TR2Co, O3, NAD^+ and H2PO4^− served as controls.

[2] = test system: human pancreatic carcinoma cells; details: added in the culture medium, after 4 days, compared with ethanol vehicle controls; cited from earlier work
[3] = test system: human pancreatic cancer cells growing in athymic mice; details: direct injection into subcutaneous tumors, cited from earlier work; for tumor growth inhibition (in words): 6 weeks, vs propylene glycol vehicle controls
[4] = test system: cultured normal fibroblasts; details: thioretinaco in culture medium; cited from earlier work
[5] = test system: person with metastatic prostate cancer; assay: Example 1: intravenous activated stem cell therapy, patient case; assay type: in vivo, human; details: following luprolide therapy, over three months; 8.0 before
Experimental: Preparation of human mesenchymal stem cells containing an increased concentration of the active site of oxidative phosphorylation, TR2CoO3O2NAD^+H2PO4^−, is accomplished by incubation of stem cells in cell culture medium containing thioretinaco (TR2Co), 30 mg/dL, and […] (NAD^+H2PO4^−), 30 mg/dL, and exposed to an atmosphere containing ozone […], 1-10% by volume. Human mesenchymal stem cells are isolated by liposuction or by bone marrow aspiration, followed by collagenase digestion, filtration of cellular debris, centrifugation and adherence of the cellular pellet to the surface of the cell culture dish. Adherent mesenchymal stem cells are maintained in cell culture medium for 4-5 days at about 37 degrees centigrade at atmospheric pressure until 90% confluency is achieved, subsequently passaged by trypsinization four additional times, and washed in buffered saline for use. Aliquots of the mesenchymal stem cells are checked for cell viability, and absence of fungal, bacterial, endotoxin and mycoplasma contamination. Multiple doses of 10^8 cells are delivered in 100 ml of sterile saline intravenously to achieve a total dose of 2.5×10^10 cells over a period of two years. The final concentration of TR2CoO3O2NAD^+H2PO4^− within the activated stem cells is approximately 10-300 μg/g.
A person was evaluated for treatment of metastatic prostate cancer. […]

| Compound | growth of cultured human adenocarcinoma cells (in words) [1] | cell growth (10^5) [1] | cell growth (% of control) [1] | cellular growth (in words) [2] | tumor growth inhibition (in words) [3] | further results |
| --- | --- | --- | --- | --- | --- | --- |
| CC1=C(/C=C/C(C)=C/C=C/C(C)=C/C(=O)NC2CCSC2=O)C(C)(C)CCC1 (stereo not drawn) [TR, N-homocysteine thiolactonyl retinamide] | significantly inhibit | 1.4 ± 0.50 10^5 | 19 % of control | inhibition of cellular growth | no growth inhibition |  |
| C/C1=C2/[N-][C@H]([C@H](CC(N)=O)[C@@]2(C)CCC(=O)NC[C@@H](C)OP(=O)([O-])O[C@H]2[C@@H](O)[C@@H](n3cnc4cc(C)c(C)cc43)O[C@@H]2CO)[C@]2(C)N=C(/C(C)=C3N=C(/C=C4N=C1[C@@H](CCC(N)=O)C\4(C)C)[C@@H](CCC(N)=O)[C@]\3(C)CC(N)=O)[C@@H](CCC(N)=O)[C@]2(C)CC(N)=O.[CH2-][C@H]1O[C@@H](n2cnc3c(N)ncnc32)[C@H](O)[C@@H]1O.[Co] [adenosyl cobalamin] |  |  |  |  | no growth inhibition |  |
| N[C@H]1CCSC1=O.[O-][Cl+3]([O-])([O-])O [homocysteine thiolactone perchlorate] |  |  |  |  | no growth inhibition |  |
| N-homocysteine thiolactonyl retinamido cobalamin [TR2Co] | significantly inhibit | 2.5 ± 0.82 10^5 | 33 % of control | inhibition of cellular growth |  | growth of cultured normal fibroblasts (in words) [4]: Only the highest concentrations of thioretinaco decrease growth; reduction of tumor weight ([3]; after 6 weeks of growth, compared with propylene glycol vehicle controls): 50% |
| homocysteine thiolactonyl cobalamin |  |  |  |  | no growth inhibition |  |
| luprolide |  |  |  |  |  | PSA value [5]: 0.1 ng/mL |
